Laboratory results: patent publication US12262725B2, “Improving taste profile of orange juice” (SYMRISE AG, priority 2015, dated 2025)

Tests used:
Type in all cases: in vivo
[1] = Masking the perception of the acid and the bitterness in orange juice; panelists rate sweet, bitter and sour on a 0-10 scale; settings: for Assessment (0-10) Bitter / Assessment (0-10) Sour / Assessment (0-10) Sweet: scale 0-10
Source text: The panelists (n=6-8) thereby evaluate the 3 attributes “sweet”, “bitter” and “sour” on an unstructured scale of 0 (no taste) to 10 (strong taste). In one sample, the panelists receive the orange juice alone, in a further sample, they received the orange juice which was supplemented with an amount of neoflavonoids as listed in one of the tables. Thereby, the order is arbitrary and not known to the panelists before.
In the following Tables 1A to 1D, the results of the evaluations are summed up.

[2] = Masking of typical bitter substances from citrus products; bitterness rated by a group of experts; settings: for Assessment Bitter (0-10) With neoflavonoid: amount of neoflavonoid not given; for Relative masking (bitter): with vs without neoflavonoid
Source text: Masking of Typical Bitter Substances from Citrus Products
For quantifying the reduction (i.e. the masking or the decrease) of the bitter impression in a sample, the bitterness of a solution containing the bitter substances named in the following Table 2 in column 1 were each compared with a sample, which contained the corresponding bitter substance and additionally the respectively specified amount of a neoflavonoid (column 2) by a group of experts (classification: 1 [not bitter] to 10 [extremely bitter]). For the analysis, i. e. the calculation of the reduction (in %) of the bitter impression, the respective average values of the assessments of the group of experts were used.

[3] = Masking of the perception of the acid in citrus containing carbonated drinks; panelists rate sour on a 0-10 scale
Source text: Masking of the Perception of the Acid in Citrus Containing Carbonated Drinks
For quantifying the reduction (i. e. the masking or the decrease) of the perception of the acid in a sample, the panelists (n=6-8) assess the attribute “sour” on a non-structured scale from 0 (no taste)-10 (strong taste). The panelists receive in one sample the citrus/-lime soft drink reduced in sugar alone, in a further sample the soft drink, to which an amount of neoflavonoids specified in Table 3 has been added. Thereby, the order is arbitrary and not known to the panelists before. In the following Table, the results of the evaluations are summed up.

[4] = HLB Hamlin orange juice, 15 ppm neoflavonoid vs juice alone
[5] = Orange juice comprising 7.8 ppm limonin, 10 ppm neoflavonoid vs juice alone
[6] = Orange juice comprising 7.8 ppm limonin, 10 ppm neoflavonoid, n=6-8
[7] = Orange juice, oranges infected with HLB from early ripening Hamlin March 2014, 15 ppm neoflavonoid, n=6-8
[8] = Trial 1B, orange juice comprising 7 ppm limonin, 20 ppm neoflavonoid vs juice alone
[9] = Trial 1B, orange juice comprising 7 ppm limonin, 20 ppm neoflavonoid
[10] = Trial 1C, orange juice comprising 7 ppm limonin, 25 ppm neoflavonoid vs juice alone
[11] = Trial 1C, orange juice comprising 7 ppm limonin, 25 ppm neoflavonoid
[12] = Trial 1D, orange juice comprising 7 ppm limonin, 25 ppm neoflavonoid vs juice alone
[13] = Trial 1D, orange juice comprising 7 ppm limonin, 25 ppm neoflavonoid

## COc1cc(C2CC(=O)Oc3cc(O)cc(O)c32)ccc1O (stereo not shown) [1:1 mixture from component 9 and 10, 5,7-dihydroxy-4-(4-hydroxy-3-methoxy-phenyl)chroman-2-on]
[1]; [4]
  Relative change Bitter: −36%
  Relative change Sour: −19%
  Relative change Sweet: +22%
[1]; [5]
  Relative change Bitter: −46%
  Relative change Sour: −35%
  Relative change Sweet: +52%
[1]; [6]
  Assessment (0-10) Bitter: 2.5
  Assessment (0-10) Sour: 3.5
  Assessment (0-10) Sweet: 6.0
[1]; [7]
  Assessment (0-10) Bitter: 2.7
  Assessment (0-10) Sour: 3.5
  Assessment (0-10) Sweet: 3.8
[2]; solution of 10 ppm limonin
  Assessment Bitter (0-10) With neoflavonoid: 2.5
  Relative masking (bitter): −19%
[2]; solution of 50 ppm poncirin
  Assessment Bitter (0-10) With neoflavonoid: 3.5
  Relative masking (bitter): −29%
[2]; solution of 75 ppm naringin
  Assessment Bitter (0-10) With neoflavonoid: 2.9
  Relative masking (bitter): −24%

## O=C1CC(c2ccc(O)cc2)c2c(O)cc(O)cc2O1 (stereo not shown) [1:1 mixture from component 11 and 12, 5,7-dihydroxy-4-(4-hydroxyphenyl)-chroman-2-on]
[1]; [8]
  Relative change Bitter: −45%
  Relative change Sour: −33%
  Relative change Sweet: +13%
[1]; [9]
  Assessment (0-10) Bitter: 2.8
  Assessment (0-10) Sour: 3.1
  Assessment (0-10) Sweet: 4.8
[2]; solution of 10 ppm limonin
  Assessment Bitter (0-10) With neoflavonoid: 2.8
  Relative masking (bitter): −38%
[2]; solution of 50 ppm poncirin
  Assessment Bitter (0-10) With neoflavonoid: 3.6
  Relative masking (bitter): −8%
[2]; solution of 75 ppm naringin
  Assessment Bitter (0-10) With neoflavonoid: 3.7
  Relative masking (bitter): −18%

## O=C1CC(c2ccc(O)cc2)c2ccc(O)cc2O1 (stereo not shown) [1:1 mixture from component 29 and 30, 7-hydroxy-4-(4-hydroxy-phenyl)-chroman-2-on]
[1]; [10]
  Relative change Bitter: −45%
  Relative change Sour: −33%
  Relative change Sweet: +13%
[1]; [11]
  Assessment (0-10) Bitter: 2.4
  Assessment (0-10) Sour: 3.0
  Assessment (0-10) Sweet: 5.3

## COc1cc(C2CC(=O)Oc3cc(O)cc(OC)c32)ccc1O (stereo not shown) [1:1 mixture from component 41 and 42, 7-hydroxy-4-(4-hydroxy-3-methoxy-phenyl)-5-methoxy-chroman-2-on]
[1]; [12]
  Relative change Bitter: −43%
  Relative change Sour: −13%
  Relative change Sweet: +43%
[1]; [13]
  Assessment (0-10) Bitter: 2.7
  Assessment (0-10) Sour: 3.7
  Assessment (0-10) Sweet: 5.9
[2]; solution of 100 ppm naringin
  Assessment Bitter (0-10) With neoflavonoid: 3.7
  Relative masking (bitter): −15%
[3]; Carbonated soft drink (7° Brix, 0.2% citric acid), with vs without neoflavonoid, p < 0.1
  Relative masking (sour): −17%
[3]; Carbonated soft drink (7° Brix, 0.2% citric acid, 0.0001% citrus oil, 0.0001% lime oil, 0.06% citrus aroma), n=6-8
  Assessment Sour (0-10) With neoflavonoid: 3.4
